Results reported in ChEMBL document CHEMBL1201862, “PubChem BioAssay data set” (2004).
Calls of active or inactive are those of the source.

Experiments:
[1] = target: T1, Microphthalmia-associated transcription factor (Homo sapiens, UniProt O75030); assay: reducers of TRPM1 reporter luminescence, concentration series – cell-based, SK-MEL-5, cherry-picked, set 3, MITF inhibitor project, dose response (AID 493073); format: functional;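 further: SK-MEL-5 melanoma cells with luciferase driven by the MITF target TRPM1 promoter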
T1 sequence (O75030 whole entry): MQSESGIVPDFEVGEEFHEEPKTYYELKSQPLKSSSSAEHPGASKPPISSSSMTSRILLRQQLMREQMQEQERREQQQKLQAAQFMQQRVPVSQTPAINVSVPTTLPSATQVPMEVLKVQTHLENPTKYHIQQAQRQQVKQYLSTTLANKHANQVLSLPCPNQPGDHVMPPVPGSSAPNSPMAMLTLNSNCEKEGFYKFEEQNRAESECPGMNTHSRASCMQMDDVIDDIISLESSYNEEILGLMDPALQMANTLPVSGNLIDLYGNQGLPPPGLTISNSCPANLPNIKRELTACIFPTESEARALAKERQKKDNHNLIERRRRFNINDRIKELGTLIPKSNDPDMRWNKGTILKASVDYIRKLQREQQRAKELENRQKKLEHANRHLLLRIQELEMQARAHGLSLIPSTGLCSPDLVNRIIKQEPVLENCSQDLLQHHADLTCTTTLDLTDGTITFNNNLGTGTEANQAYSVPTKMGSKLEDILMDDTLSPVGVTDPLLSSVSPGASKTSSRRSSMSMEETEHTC

[2] = NIH3T3 cell viability loss – ATP luminescence, mouse fibroblasts, counter-screen, dose response (AID 2010); format: functional, cell-based;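 further: cells exposed to compound for about 90 hours before reading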
[3] = Trypanosoma cruzi growth suppression in host cells – NIH3T3 host cells, beta-gal luminescence, confirmation (AID 2044); format: functional, cell-based;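 further: intracellular parasites grown in NIH/3T3 mouse fibroblasts as host cells; luminescent beta-galactosidase reporter signal from transgenic T. cruzi replicating inside host cells; inhibitors lower the luminescence signal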
cells = format: functional
[4] = THP-1 cell cytotoxicity, dose response, cytotoxicity control for non-replicating M. tuberculosis project (AID 489025); format: functional
Fatty acid synthase [5] = target: T2, Fatty acid synthase (Homo sapiens, UniProt P49327); assay: inhibition of human FAS-TE enzyme activity – biochemical, kinetic fluorescence intensity, dose response (AID 624326); format: functional;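 further: rate of fluorescence rise from hydrolysis of a fluorogenic O-methyl fluorescein ester substrate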
T2 sequence (P49327 whole entry): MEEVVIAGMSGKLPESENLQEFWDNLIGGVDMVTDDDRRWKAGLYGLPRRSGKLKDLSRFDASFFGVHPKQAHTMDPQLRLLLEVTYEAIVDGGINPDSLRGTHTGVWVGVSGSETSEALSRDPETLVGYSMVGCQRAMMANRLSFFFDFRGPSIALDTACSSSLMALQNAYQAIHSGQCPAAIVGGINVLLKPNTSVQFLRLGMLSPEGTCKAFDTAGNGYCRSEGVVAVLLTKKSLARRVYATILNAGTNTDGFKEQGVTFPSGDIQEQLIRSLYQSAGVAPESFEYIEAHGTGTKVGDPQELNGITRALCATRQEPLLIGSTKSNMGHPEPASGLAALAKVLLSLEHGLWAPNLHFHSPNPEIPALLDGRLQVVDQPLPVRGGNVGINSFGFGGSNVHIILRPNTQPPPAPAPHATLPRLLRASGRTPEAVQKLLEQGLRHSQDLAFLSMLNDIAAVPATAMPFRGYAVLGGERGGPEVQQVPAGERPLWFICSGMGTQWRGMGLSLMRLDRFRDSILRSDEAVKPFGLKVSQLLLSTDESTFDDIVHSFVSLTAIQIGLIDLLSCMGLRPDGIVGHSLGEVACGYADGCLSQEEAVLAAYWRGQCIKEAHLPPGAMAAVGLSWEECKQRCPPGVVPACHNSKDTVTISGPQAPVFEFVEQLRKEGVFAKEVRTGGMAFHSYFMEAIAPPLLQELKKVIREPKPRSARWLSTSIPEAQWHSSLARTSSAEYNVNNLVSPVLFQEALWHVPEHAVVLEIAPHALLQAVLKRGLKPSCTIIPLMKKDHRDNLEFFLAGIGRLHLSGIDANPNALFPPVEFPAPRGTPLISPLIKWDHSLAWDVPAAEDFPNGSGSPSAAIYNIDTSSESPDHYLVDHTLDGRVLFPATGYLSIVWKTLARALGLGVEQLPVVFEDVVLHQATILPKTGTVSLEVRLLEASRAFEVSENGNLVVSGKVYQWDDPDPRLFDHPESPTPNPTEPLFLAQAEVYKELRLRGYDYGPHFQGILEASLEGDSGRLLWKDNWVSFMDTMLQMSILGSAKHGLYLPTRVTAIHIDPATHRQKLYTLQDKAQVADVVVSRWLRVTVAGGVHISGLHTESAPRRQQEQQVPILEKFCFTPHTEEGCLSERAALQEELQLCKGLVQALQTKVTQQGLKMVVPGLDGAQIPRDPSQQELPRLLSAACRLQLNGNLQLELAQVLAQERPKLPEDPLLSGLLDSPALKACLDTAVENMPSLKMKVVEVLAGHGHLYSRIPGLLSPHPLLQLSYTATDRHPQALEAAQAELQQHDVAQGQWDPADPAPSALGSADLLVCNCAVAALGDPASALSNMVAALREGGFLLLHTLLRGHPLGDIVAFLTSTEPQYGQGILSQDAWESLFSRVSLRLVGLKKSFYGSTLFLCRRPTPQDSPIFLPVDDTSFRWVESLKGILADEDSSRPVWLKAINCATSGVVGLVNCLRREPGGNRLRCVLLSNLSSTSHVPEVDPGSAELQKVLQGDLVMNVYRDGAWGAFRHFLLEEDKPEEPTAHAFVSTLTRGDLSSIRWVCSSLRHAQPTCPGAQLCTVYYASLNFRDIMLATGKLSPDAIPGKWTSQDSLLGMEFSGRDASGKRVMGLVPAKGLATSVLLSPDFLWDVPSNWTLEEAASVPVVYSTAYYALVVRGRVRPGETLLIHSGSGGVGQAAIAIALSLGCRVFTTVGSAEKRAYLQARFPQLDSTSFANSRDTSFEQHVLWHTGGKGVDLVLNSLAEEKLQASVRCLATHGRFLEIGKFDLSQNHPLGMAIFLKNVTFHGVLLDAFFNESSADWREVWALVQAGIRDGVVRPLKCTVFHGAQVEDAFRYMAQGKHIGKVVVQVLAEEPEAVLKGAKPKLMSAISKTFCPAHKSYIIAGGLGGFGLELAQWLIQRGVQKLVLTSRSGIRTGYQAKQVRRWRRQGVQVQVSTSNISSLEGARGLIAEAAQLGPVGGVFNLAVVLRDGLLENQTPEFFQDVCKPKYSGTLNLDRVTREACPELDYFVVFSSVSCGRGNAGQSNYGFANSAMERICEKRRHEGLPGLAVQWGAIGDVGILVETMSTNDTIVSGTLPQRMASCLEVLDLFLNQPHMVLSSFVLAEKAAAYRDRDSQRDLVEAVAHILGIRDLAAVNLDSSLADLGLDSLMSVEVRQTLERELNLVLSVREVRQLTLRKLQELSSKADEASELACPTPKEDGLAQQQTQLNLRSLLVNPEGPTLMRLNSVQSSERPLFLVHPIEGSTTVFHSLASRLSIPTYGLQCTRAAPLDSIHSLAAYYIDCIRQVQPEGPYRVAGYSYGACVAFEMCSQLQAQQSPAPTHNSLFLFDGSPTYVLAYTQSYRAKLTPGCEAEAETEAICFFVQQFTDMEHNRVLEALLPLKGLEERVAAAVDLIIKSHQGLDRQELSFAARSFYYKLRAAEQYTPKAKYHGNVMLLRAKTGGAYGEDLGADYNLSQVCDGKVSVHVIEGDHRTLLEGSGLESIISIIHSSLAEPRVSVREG

Fatty acid synthase [6] = target: T2, Fatty acid synthase; assay: inhibition of human FAS-TE enzyme activity – biochemical, endpoint fluorescence intensity, uHTS hits, dose response (AID 624327); format: functional;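 further: fluorescence from hydrolysis of an O-methyl fluorescein acyl ester substrate by the enzyme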
[7] = bead-based luminescence quenchers, dual-tagged ARNT – biochemical, AlphaScreen, cherry-pick, artefact control for ARNT-TACC3 interaction inhibitor project, dose response (AID 651705); format: functional;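 further: AlphaScreen bead proximity signal that flags compounds interfering with the detection technology; potency reflects signal decrease which marks the compound as an assay artifact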
[8] = target: DNA dC->dU-editing enzyme APOBEC-3G (Homo sapiens, UniProt Q9HC16); assay: Dose Response confirmation of small molecule APOBEC3G DNA Deaminase Inhibitors via a fluorescence-based single-stranded DNA deaminase assay. [Related pubchem assays (depositor defined):AID493012, AID493028]; format: functional
DNA dC->dU-editing enzyme APOBEC-3G, sequence (Q9HC16 whole entry): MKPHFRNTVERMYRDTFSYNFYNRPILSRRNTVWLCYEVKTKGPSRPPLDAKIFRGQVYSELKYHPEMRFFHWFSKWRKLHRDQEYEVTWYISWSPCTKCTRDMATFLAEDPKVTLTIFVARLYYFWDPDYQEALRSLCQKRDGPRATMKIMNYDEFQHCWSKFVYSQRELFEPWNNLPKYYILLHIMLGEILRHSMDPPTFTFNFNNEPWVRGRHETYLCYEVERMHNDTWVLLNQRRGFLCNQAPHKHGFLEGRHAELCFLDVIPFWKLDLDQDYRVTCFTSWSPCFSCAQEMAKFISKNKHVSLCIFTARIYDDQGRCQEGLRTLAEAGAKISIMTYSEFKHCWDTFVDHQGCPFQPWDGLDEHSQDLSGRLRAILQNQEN

Escherichia coli = assay: microbe, parasite or virus in culture
Vero = assay: cells; format: functional; details: Chlorocebus sabaeus
INS1 = assay: INS-1E survival protection against cytokine death – cell-based, luminescence, retest, dose response (AID 449756); format: functional; details: Rattus norvegicus, INS1;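 further: cell death triggered by IL-1 beta plus TNF-alpha plus IFN-gamma mixture; protective hits raise ATP signal compared with cytokine alone wells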
Streptococcus = assay: GAS UMAA2166 growth inhibition – luminescence, BacTiterGlo, counter-screen for streptokinase expression inhibitor project, dose response (AID 1915); format: functional, organism-based;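 further: potency for reduction of bacterial viability or growth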
Nonstructural protein 1 = Nonstructural protein 1 (Influenza A virus, UniProt Q194T2); format: functional, Influenza A virus (A/California/07/2009(H1N1))
Nonstructural protein 1, sequence (Q194T2 whole entry): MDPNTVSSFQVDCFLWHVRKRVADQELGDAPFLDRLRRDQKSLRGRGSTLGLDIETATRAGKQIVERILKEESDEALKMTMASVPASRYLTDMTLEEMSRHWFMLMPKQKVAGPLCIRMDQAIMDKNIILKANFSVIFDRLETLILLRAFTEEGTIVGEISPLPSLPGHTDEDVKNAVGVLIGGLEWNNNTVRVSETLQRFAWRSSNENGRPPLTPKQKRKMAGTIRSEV

[9] = tested on: Streptococcus sp. 'group A'; assay: Streptococcus pyogenes SK(-)GAS viability under kanamycin – luminescence, BacTiterGlo, confirmation, counter-screen for streptokinase expression inhibitor project, dose response (AID 1900); format: functional, organism-based
Protein Wnt-3a = Protein Wnt-3a (Mus musculus, UniProt P27467); assay: antagonism of Wnt3a pathway luciferase reporter – Wnt-LIGHT cells, luminescence, selectivity assay for Gli-SUFU antagonist project, dose response (AID 651570); format: functional; details: read-out: IC50_Mean;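 further: Wnt-LIGHT reporter cells stimulated with conditioned medium from Wnt3a-producing cells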
Protein Wnt-3a, sequence (P27467 whole entry): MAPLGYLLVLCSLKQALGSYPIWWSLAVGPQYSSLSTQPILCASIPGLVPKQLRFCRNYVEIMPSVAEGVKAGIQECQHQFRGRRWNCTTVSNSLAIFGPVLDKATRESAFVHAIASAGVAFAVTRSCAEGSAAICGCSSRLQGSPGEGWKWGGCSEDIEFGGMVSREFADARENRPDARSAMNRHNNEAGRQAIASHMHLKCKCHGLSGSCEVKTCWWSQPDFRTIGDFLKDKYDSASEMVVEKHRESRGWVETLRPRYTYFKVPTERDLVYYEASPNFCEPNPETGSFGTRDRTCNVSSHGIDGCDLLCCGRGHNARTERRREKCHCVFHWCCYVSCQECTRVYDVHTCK

[10] = target: T3, Short transient receptor potential channel 4 (Mus musculus, UniProt Q9QUQ5); assay: calcium entry via TRPC4 opening agents – cell-based, HEK293 TRPC4/mu-opioid, Fluo-4 calcium, dose response (AID 434937); format: functional
T3 sequence (Q9QUQ5 whole entry): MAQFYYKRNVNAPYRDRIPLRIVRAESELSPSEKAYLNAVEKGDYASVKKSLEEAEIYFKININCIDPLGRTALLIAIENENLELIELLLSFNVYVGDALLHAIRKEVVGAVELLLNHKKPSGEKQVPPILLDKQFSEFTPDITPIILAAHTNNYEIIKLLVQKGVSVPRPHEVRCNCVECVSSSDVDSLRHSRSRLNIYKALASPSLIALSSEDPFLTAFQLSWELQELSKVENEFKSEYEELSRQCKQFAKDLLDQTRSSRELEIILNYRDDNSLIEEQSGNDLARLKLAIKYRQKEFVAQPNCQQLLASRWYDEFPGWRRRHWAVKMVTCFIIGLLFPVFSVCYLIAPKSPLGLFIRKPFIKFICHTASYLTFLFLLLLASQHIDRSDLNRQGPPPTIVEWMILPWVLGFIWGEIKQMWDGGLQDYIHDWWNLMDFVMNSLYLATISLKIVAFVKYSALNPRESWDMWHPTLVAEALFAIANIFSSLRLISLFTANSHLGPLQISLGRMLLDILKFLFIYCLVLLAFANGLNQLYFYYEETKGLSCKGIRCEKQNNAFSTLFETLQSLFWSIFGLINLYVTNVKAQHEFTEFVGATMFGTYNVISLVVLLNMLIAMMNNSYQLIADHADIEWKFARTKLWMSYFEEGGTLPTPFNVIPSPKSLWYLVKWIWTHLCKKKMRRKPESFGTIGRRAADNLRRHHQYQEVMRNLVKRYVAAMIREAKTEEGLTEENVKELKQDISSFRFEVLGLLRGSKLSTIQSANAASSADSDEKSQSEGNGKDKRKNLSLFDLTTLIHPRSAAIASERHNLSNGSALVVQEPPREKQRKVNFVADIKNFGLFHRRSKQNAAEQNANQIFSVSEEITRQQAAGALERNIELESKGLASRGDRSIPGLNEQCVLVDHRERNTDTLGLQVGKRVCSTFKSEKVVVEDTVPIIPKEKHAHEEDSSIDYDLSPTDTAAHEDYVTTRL

[11] = target: T4, Sentrin-specific protease 1 (Homo sapiens, UniProt Q9P0U3); assay: Dose response confirmation of small molecule inhibitors of the catalytic domain of the SUMO protease, SENP1 in a FRET assay.; format: functional; details: read-out: IC50_Mean
T4 sequence (Q9P0U3 whole entry): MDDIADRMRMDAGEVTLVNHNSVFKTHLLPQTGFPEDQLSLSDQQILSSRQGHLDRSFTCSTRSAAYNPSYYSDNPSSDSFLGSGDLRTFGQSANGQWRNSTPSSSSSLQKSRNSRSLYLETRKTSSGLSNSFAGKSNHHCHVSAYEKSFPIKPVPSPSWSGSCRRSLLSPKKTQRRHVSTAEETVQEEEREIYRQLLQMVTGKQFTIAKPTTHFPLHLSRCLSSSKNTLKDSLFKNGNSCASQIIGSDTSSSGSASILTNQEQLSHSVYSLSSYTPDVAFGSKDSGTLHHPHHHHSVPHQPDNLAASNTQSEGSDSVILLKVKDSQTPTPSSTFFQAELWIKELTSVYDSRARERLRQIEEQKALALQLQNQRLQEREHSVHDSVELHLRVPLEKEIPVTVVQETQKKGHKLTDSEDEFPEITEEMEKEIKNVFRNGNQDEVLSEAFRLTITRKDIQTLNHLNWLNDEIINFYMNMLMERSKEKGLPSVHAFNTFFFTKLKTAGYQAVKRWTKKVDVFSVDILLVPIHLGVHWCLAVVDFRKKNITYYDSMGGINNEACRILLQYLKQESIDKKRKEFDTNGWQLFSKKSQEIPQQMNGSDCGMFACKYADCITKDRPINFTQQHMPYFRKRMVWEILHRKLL

[12] = target: T4, Sentrin-specific protease 1; assay: SENP1 catalytic domain blockers, concentration series – biochemical, kinetic FRET, dose response (AID 651697); format: functional; details: read-out: IC50_Mean
[13] = target: T5, Carboxy-terminal domain RNA polymerase II polypeptide A small phosphatase 1 (Homo sapiens, UniProt Q9GZU7); assay: CTDSP1 inhibitors, concentration-response, biochemical, absorbance readout, ultra-high-throughput screen actives (AID 540297); format: functional
T5 sequence (Q9GZU7 whole entry): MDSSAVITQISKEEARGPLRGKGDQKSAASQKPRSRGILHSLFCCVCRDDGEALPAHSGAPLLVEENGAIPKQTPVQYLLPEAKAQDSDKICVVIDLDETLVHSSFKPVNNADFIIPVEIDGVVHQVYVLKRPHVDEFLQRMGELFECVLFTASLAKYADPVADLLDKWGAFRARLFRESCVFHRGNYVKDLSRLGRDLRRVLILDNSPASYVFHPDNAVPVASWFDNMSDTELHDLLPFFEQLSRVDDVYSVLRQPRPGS

[14] = intracellular Trypanosoma cruzi inhibitors in host cells – cell-based, plate reader, cherry-pick samples, set 3, dose response (AID 651818); format: functional;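 further: compounds incubated with infected cells for about four days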
Streptokinase A = target: T6, Streptokinase A (Streptococcus pyogenes serotype M1, UniProt P10520); assay: viability-normalized secreted streptokinase activity reduction – plasminogen activation absorbance, OD405, dose response (AID 1914); format: functional, Streptococcus pyogenes M1 GAS;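 further: secreted streptokinase activity via plasminogen activation per viability signal from cell pellet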
T6 sequence (P10520 whole entry): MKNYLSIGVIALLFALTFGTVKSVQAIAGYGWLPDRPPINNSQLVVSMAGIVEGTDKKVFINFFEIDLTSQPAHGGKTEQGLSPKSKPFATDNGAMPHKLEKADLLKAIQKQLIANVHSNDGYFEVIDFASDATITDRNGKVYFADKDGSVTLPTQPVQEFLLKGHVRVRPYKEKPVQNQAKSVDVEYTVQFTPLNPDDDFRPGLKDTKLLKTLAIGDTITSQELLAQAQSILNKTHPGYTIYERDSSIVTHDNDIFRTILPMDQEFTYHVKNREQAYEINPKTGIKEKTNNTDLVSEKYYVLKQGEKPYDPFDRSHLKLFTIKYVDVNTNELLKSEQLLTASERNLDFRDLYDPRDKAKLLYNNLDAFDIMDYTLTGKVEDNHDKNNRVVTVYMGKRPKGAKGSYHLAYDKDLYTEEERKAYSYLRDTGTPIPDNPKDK

O=C(N/N=C\c1ccc([N+](=O)[O-])o1)C1COc2ccccc2O1 (centres undefined)
AC50 [1]: 7.21 µM (active)
EC50 [2]: > 60 µM (inconclusive)
EC50 [3]: 0.532 µM (active)
IC50 (cells): 4.2 µM (active)
CC50 [4]: 32.5 µM (active)

Cc1ccc([N+](=O)[O-])cc1NC(=O)c1ccc(C(C)(C)C)cc1
IC50 (Fatty acid synthase [5]): 4.59 µM (active)
IC50 (Fatty acid synthase [6]): 5.57 µM (active)

COc1ccc(C2=Nn3c(nnc3-c3ccccn3)SC2)cc1
AC50 [7]: 125 µM (active)

CCOC(=O)N1C(=O)[C@](CC)(c2ccccc2)N1C(=O)OCC
AC50 [1]: 10 µM (active)

O=C1C=CC(=O)C=C1 [BENZOQUINONE]
IC50 [8]: 36.1 µM (active)

CC(OC(=O)c1ccc([N+](=O)[O-])s1)C(=O)NC1CCCCC1C (centres undefined)
AC50 [1]: 12 µM (active)
IC50 (cells): 14.1 µM (active)

COC(=O)c1ccc(C2CC(=O)Nc3cc(OC)c(OC)cc32)cc1 (centres undefined)
AC50 (Escherichia coli): 32 µM (active)

CCOC(=O)c1c(NC(=O)CN2CCN(C)CC2)sc(C(=O)Nc2ccccc2)c1C
CC50 (Vero): > 25 µM (active)

O=[N+]([O-])c1ccc(O)c(/C=N/Nc2nc3ccccc3[nH]2)c1
AC50 (INS1): 0.559 µM (active)
EC50 (Streptococcus): 1.56 µM (active)
IC50 (Nonstructural protein 1): 10.3 µM (active)
AC50 (Escherichia coli): 25.6 µM (active)
EC50 [9]: 0.716 µM (active)

O=C(NCCc1cccc(Cl)c1)c1ccc(OC2CCN(Cc3ccccn3)CC2)cc1
IC50 (Protein Wnt-3a): 28.8 µM (inactive)
EC50 [10]: 0.944 µM (active)

O=C1C=C(c2cccc(Cl)c2O)C[C@@H](c2ccc(F)cc2)C1
IC50 [11]: 1.14 µM (active)
IC50 [12]: 2.61 µM (active)

C[C@H]1CN([C@@H](C)CO)C(=O)c2cccc(NC(=O)c3ccncc3)c2O[C@H]1CN(C)C(=O)Nc1ccccc1
IC50 [13]: 13.8 µM (active)
AC50 [14]: 2.61 µM (active)

COc1ccccc1/C=C1\SC(=S)N(CCC(=O)NCCc2ccc(O)cc2)C1=O
CC50 (Vero): > 25 µM (active)

C[C@H](CO)N1C[C@H](C)[C@H](CN(C)Cc2ccc(C(=O)Nc3ccccc3N)cc2)Oc2ccc(N(C)C)cc2CC1=O
AC50 [14]: 2.03 µM (active)

O=C1/C(=C/c2ccccn2)COc2ccccc21
IC50 (cells): 20.9 µM (active)
CC50 [4]: 28.2 µM (active)

c1ccc(CNc2nc(-c3ccccn3)nc3ccccc23)cc1
AC50 [7]: 80.1 µM (active)
AC50 (INS1): 2.62 µM (active)
EC50 (Streptokinase A): > 150 µM (not active)
EC50 (Streptococcus): 6.86 µM (active)
EC50 [9]: 2.57 µM (active)

Cc1ccc(C(=O)N/C(=C\c2cn(S(=O)(=O)N(C)C)c3ccccc23)C(=O)NCCN2CCOCC2)cc1
IC50 (Fatty acid synthase [5]): 16.5 µM (active)
IC50 (Fatty acid synthase [6]): 12.7 µM (active)

COc1ccc(/C=C(/NC(=O)c2cccc([N+](=O)[O-])c2)C(=O)O)cc1
AC50 (Escherichia coli): 84.9 µM (active)

Cc1cccc(NC(=O)CSc2cccc3cccnc23)c1C
AC50 [7]: 91.7 µM (active)

Cc1sc(-c2ccccn2)nc1OC(=O)c1ccc(F)cc1F
IC50 [11]: 16.6 µM (active)
IC50 [12]: 3.57 µM (active)

Cc1ccccc1N(CC(=O)NCc1ccc2c(c1)OCO2)C(=O)C1CSC(=O)C1 (centres undefined)
IC50 (Fatty acid synthase [5]): 4.48 µM (active)
IC50 (Fatty acid synthase [6]): 5.85 µM (active)

C[C@H](CO)N1C[C@H](C)[C@H](CN(C)S(=O)(=O)c2ccccc2)Oc2ccc(NC(=O)Nc3ccc(C(F)(F)F)cc3)cc2CC1=O
AC50 [14]: 4.13 µM (active)

C[C@H](CO)N1C[C@H](C)[C@H](CN(C)Cc2ccc(C(F)(F)F)cc2)Oc2c(NC(=O)CCCCCC(=O)Nc3ccccc3N)cccc2C1=O
AC50 [14]: 1.92 µM (active)
